Counter-ions that a name gives are not always drawn. Like-named read-outs stand apart in the source and are kept apart here.
Legend:
MMP-13 = MMP-13 (Homo sapiens, UniProt P45452); experiment: MMP-13 inhibition (thiopeptide or fluorescent peptide substrate); format: biochemical
MMP-9 = MMP-9 (Homo sapiens, UniProt P14780); experiment: MMP-9 inhibition (thiopeptide or fluorescent peptide substrate); format: biochemical
Procedure: The enzyme activity is measured by the rate of the color increase. The thiopeptide substrate is made up fresh as a 20 mM stock in 100% DMSO and the DTNB is dissolved in 100% DMSO as a 100 mM stock and stored in the dark at room temperature. Both the substrate and DTNB are diluted together to 1 mM with substrate buffer (50 mM HEPES pH 7.5, 5 mM CaCl2) before use. The stock of enzyme is diluted with buffer (50 mM HEPES, pH 7.5, 5 mM CaCl2, 0.02% Brij) to the desired final concentration.
Alternatively, a fluorescent peptide substrate is used. In this test procedure, the peptide substrate contains a fluorescent group and a quenching group. Upon cleavage of the substrate by an MMP, the fluorescence that is generated is quantitated on the fluorescence plate reader. The assay is run in HCBC assay buffer (50 mM HEPES, pH 7.0, 5 mM Ca^+2, 0.02% Brij, 0.5% Cysteine), with human recombinant MMP-1, MMP-9, or MMP-13. […] For the assay, substrate and enzymes are diluted in HCBC buffer to the desired concentrations. Compounds are added to the 96 well plate containing enzyme and the reaction is started by the addition of substrate.
For either the thiopeptide or fluorescent peptide test procedures, the slope of the line is calculated and represents the reaction rate. The linearity of the reaction rate is confirmed (r^2>0.85). The mean (x±sem) of the control rate is calculated and compared for statistical significance (p<0.05) with drug-treated rates using Dunnett's multiple comparison test.

MMP-1 = target: T1, MMP-1 (Homo sapiens, UniProt P03956); experiment: MMP-1 inhibition (thiopeptide or fluorescent peptide substrate); format: biochemical
T1 sequence (P03956 100-469): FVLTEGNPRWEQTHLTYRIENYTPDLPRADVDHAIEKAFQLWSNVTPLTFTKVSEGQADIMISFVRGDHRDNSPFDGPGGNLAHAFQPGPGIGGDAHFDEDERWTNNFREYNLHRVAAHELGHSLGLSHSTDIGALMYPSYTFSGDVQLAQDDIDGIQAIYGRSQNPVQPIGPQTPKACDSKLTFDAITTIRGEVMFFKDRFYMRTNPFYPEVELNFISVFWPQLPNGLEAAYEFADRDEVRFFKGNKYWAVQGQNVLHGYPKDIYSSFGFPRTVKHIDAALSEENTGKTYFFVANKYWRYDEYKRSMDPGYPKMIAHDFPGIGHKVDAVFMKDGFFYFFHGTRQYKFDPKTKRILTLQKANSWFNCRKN

THP-1 cells = experiment: THP-1 soluble protein assay, soluble TNF-α (ELISA); format: cell-based, human; conditions: for inhibition at 3 µM: Homo sapiens, THP-1, 3 μM, read-out: THP % Inhibition @ 3 μM
Procedure: Each vial of cells are cultured for about two weeks prior to being used for an assay and then are used for only 4 to 6 weeks to screen compounds.
Cell exposure to DMSO was limited to 0.1% final concentration. […] Plates are placed into an incubator set at 5% CO2 and at 37° C. After 4 hours of incubation, 300 ml/well of tissue culture supernatant (TCS) is removed for use in an TNF-α ELISA.
Percent change in each soluble protein evaluated from the “vehicle positive control” was calculated for each compound concentration with the following formula:
% Change=pg/ml (compound)−pg/ml (veh pos control)/(veh pos control)−pg/ml (veh neg control)×100
For the soluble protein (TNF-α, p75/80, p55/60, IL-8) studies under stimulated conditions, the mean pg/ml of duplicate wells were determined and the results expressed as percent change from “vehicle positive control”.

[1] = target: TNF-α converting enzyme (TACE) (Homo sapiens, UniProt P78536); experiment: TACE inhibition (fluorescent peptidyl substrate); format: biochemical; conditions: read-out: TACE IC50
Sequence of TNF-α converting enzyme (TACE) (P78536 215-824, species assumed): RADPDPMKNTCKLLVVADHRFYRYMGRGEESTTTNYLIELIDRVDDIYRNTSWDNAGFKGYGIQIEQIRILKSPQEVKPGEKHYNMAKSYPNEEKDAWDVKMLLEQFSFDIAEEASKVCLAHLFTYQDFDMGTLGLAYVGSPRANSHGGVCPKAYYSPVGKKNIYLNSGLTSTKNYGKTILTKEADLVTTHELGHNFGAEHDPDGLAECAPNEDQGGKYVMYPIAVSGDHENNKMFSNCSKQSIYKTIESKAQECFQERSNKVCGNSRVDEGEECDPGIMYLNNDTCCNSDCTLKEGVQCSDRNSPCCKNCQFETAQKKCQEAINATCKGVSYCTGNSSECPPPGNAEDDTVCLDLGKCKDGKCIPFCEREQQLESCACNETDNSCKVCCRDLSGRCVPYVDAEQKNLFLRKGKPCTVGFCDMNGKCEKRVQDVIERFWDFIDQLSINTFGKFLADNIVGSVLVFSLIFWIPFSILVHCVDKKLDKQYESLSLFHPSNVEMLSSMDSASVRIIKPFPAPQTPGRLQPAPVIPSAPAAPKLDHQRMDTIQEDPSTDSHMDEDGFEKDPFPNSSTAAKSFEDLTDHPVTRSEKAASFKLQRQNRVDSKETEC

Sequence of MMP-9 (P14780 94-707): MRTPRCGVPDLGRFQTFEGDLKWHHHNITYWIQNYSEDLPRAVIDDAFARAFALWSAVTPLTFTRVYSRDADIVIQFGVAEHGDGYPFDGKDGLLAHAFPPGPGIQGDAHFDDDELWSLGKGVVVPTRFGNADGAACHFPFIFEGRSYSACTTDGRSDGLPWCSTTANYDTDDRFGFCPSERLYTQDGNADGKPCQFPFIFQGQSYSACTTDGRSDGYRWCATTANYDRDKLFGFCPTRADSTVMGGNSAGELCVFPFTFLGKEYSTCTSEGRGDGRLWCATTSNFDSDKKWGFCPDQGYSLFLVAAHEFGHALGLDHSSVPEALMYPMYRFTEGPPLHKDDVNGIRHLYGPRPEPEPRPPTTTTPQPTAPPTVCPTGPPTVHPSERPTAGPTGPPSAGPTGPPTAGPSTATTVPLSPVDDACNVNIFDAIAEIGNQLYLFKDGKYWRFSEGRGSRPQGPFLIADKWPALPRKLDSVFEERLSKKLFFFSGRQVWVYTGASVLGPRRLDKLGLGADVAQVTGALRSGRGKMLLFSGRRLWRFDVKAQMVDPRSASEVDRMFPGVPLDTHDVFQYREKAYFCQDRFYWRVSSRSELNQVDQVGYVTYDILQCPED

Molecule	IC50 (MMP-13; read-out: MMP-13 IC50) [nM]	IC50 (MMP-9; read-out: MMP-9 IC50) [nM]	IC50 (MMP-1; read-out: MMP-1 IC50) [nM]	THP % Inhibition @ 3 μM (THP-1 cells; THP-1 cells) [%]	IC50 [1] [nM]	inhibition at 3 µM (THP-1 cells; THP-1 cells) [%]	other results
2-[(4-but-2-Ynylthiophenylsulfonyl)methylamino]-N-hydroxyacetamide [Example 134]	84	111	4950	14			
2-[[4-Butynyloxy-phenylsulfonyl]-amino]-N-hydroxy-3-(pyridinylthio)propanamide [Example 169]	28	160	1910	77	2.9		
CC#CCOc1ccc(S(=O)(=O)NCC(=O)NO)cc1 [Example 25, 2-(4-but-2-ynyloxy-Benzenesulfonylamino)-N-hydroxy-acetamide]		753			4.8	39	MMP-1 % inhibition (10) (MMP-1; at (10), concentration unit not given): 47%(10)
CC#CCOc1ccc(S(=O)(=O)NC(C(=O)NO)C(C)C)cc1 (stereo not drawn) [Example 27, 2-(4-but-2-ynyloxy-Benzenesulfonylamino)-N-hydroxy-3-methyl-butyramide]					32	75	IC50 (MMP-13; MMP-13 IC50): 18 nM; IC50 (MMP-9; MMP-9 IC50): 42 nM; IC50 (MMP-1; MMP-1 IC50): 2960 nM
CC#CCOc1ccc(S(=O)(=O)NC(C)C(=O)NO)cc1 (stereo not drawn) [Example 30, 2-(4-but-2-ynyloxy-Benzenesulfonylamino)-N-hydroxy-propionamide]	40	262	4390		6	60	
CC1(C)SCCN(S(=O)(=O)c2ccc(OCC#CCO)cc2)C1C(=O)NO (stereo not drawn) [Example 61, 4-[4-(4-Hydroxy-but-2-ynyloxy)-benzenesulfonyl]-2,2-dimethyl-thiomorpholine-3-carboxylic Acid Hydroxyamide]							IC50 ([1]; Table 10): 40 nM; IC50 (MMP-13; Table 10, read-out: MMP-13 IC50): 13 nM; IC50 (MMP-9; MMP-9 IC50, Table 10): 70 nM; IC50 (MMP-1; Table 10, read-out: MMP-1 IC50): 24 nM; inhibition at 3 µM (THP-1 cells; Table 10): 89%
CC#CCOc1ccc(S(=O)(=O)N[C@@H](C(=O)NO)[C@@H](C)CC)cc1 [Example 105, (2R,3S)-2-({[4-(2-Butynyloxy)phenyl]sulfonyl}amino)-N-hydroxy-3-methylpentanamide]	52	213	1740		6.8	87	
CC#CCOc1ccc(S(=O)(=O)N[C@@H](C(=O)NO)C(C)(C)C)cc1 [Example 106, (2R)-2-({[4-(2-Butynyloxy)phenyl]sulfonyl)amino)-N-hydroxy-3,3-dimethylbutanamide]	41	224	880		17	91	
CC#CCOc1ccc(S(=O)(=O)N(CC#CCN(CC)CC)C(C(=O)NO)C(C)C)cc1 (stereo not drawn) [Example 126]	36	149	212	93	73		
CC#CCOc1ccc(S(=O)(=O)N[C@@H](C(=O)NO)C2CCC(O)CC2)cc1 (stereo partly drawn) [Example 129, (2R)-{[4-(2-Butynyloxy)phenyl]sulfonyl}amino-N-hydroxy-2-(4-hydroxycyclohexyl)ethanamide]	28	192	1040		7.4	92	melting point: 180 to 182 °C
CN(CC(=O)NO)S(=O)(=O)c1ccc(OCC#Cc2ccc(Cl)cc2)cc1 [Example 132]	1120	2370	> 10000	27	1100		
CC#CCOc1ccc(S(=O)(=O)NC2(C(=O)NO)CCCCC2)cc1 [Example 138, 1-({[4-(2-Butynyloxy)phenyl]sulfonyl}amino)-N-hydroxycyclohexanecarboxamide]	619	2170	5170		27	19	melting point: 82 to 84 °C
CC#CCOc1ccc(S(=O)(=O)NC2(C(=O)NO)CCCC2)cc1 [Example 139, 1-({[4-(2-Butynyloxy)phenyl]sulfonyl}amino)-N-hydroxycyclopentanecarboxamide]	1270	3700	> 10000		37	26	melting point: 66 to 68 °C
CC#CCOc1ccc(S(=O)(=O)N(C)C(C(=O)NO)C(C)(C)SCCN2CCCC2C(=O)OC)cc1 (stereo not drawn) [Example 145]	2.5	7.1	18	83	109		
CC#CCOc1ccc(S(=O)(=O)N(C)[C@H](CSC)C(=O)NO)cc1 [Example 154]	5.4	19	47		3.3	90	
CC#CCOc1ccc(S(=O)(=O)N[C@@H](C(=O)NO)C(C)(C)SC)cc1 [Example 158]	30	164	1020		25	78	melting point: 128 to 132 °C
CC#CCOc1ccc(S(=O)(=O)NC(C(=O)NO)C(C)(C)SCC)cc1 (stereo not drawn) [Example 159, 2-[(4-but-2-ynyloxy-Benenesulfonyl)-amino]-N-hydroxy-3-methyl-3-ethylsulfanyl-butyramide]	42	424	852		12	76	melting point: 46 to 50 °C
CC#CCOc1ccc(S(=O)(=O)NC(C(=O)NO)C(C)(C)SCc2cccnc2)cc1 (stereo not drawn) [Example 161]	7.9	130	476	81	6.4		
CC#CCOc1ccc(S(=O)(=O)NC(C(=O)NO)C(C)(C)SCC(=O)O)cc1 (stereo not drawn) [Example 166, tert-Butyl {[2-({[4-2-Butynyloxy)phenyl]sulfonyl}amino)-3-(hydroxyamino)-1,1-dimethyl-3-oxopropyl]sulfanyl Acetic Acid, Sodium Salt]	241	2940	1900			55	
CC#CCOc1ccc(S(=O)(=O)NC(CSC)C(=O)NO)cc1 (stereo not drawn) [Example 167]		228	1740	77	3.5		
CC#CCOc1ccc(S(=O)(=O)NC(CSCc2ccccc2)C(=O)NO)cc1 (stereo not drawn) [Example 168]		141	1970	62	4.5		
CC#CCOc1ccc(S(=O)(=O)NC(CSCCCCCCCCCC/C=C\CC)C(=O)NO)cc1 (stereo not drawn) [Example 170, 2-({[4-(2-butynyloxy)phenyl]sulfonyl}amino)-N-hydroxy-3-[(Z)-11-tetradecenylsulfanyl]propanamide]	322	1570	> 10000		272	7	
CC#CCOc1ccc(S(=O)(=O)N2CCN(S(C)(=O)=O)CC2C(=O)NO)cc1 (stereo not drawn) [Example 227, 1-(4-but-2-ynyloxy-Benzenesulfonyl)-4-methanesulfonyi-piperazine-2-carboxylic Acid Hydroxyamide]	6.4	51	96			81	

Reference: patent publication US6716833B2, “Acetylenic α-amino acid-based sulfonamide hydroxamic acid tace inhibitors” (priority 1999, dated 2004)
